Reference: patent US5580552A, “7-glycosyloxybenzopyran derivative and antiallergic agent containing the derivative as active ingredient” (priority 1994, dated 1996)

Experiments:
[1] = test system: experimental asthma model (airway resistance); assay: Effect on experimental asthma model in guinea pigs (airway resistance); type: in vivo, guinea pigs (male hartley); settings: 50 mg/kg oral (TABLE 6); for inhibition in vivo at 50 mg/kg: Cavia porcellus, po, 0.5 h
Procedure: Effect on experimental asthma model in guinea pigs
The asthma is typical allergic disease and we carried out this pharmacological test by well known experimental asthma model in guinea pigs in order to comfirm that the compounds of the present invention suppress the asthma. In the following, the method of the pharmacological test will be explained.
Method: Male hartley guinea pigs were immunized by intraperitoneal injection of saline (1ml) containing 5 mg of ovalbumine (OVA) three times at interval of one week. 2 weeks after final immunization, the animals were challenged by inhalation of 1% OVA-saline solution for 1 minute and then the airway resistance of the animals were measured for 30 minutes with PULMOS-1 (Medical Interface Project Station Inc.) after the inhalation. The compounds of the present invention (test compounds) suspended in 0.5% CMCNa were given orally at a dose of 50 mg/kg. As positive control group, Disodium Cromoglicate (DSCG), well known anti-allergic agent, in saline were injected at a dose of 20 mg/kg into the vein of the animals. As vehicle control group, only 0.5% CMCNa solution were given orally. The inhibition (%) of the airway resistance in vehicle control group was calculated according to equation 5 and the result was shown in TABLE 6. Each experimental group consisted of 5 guinea pigs. [formula]
A: Maximum airway resistance in vehicle control group
B: Maximum airway resistance in test compounds group or positive control group

[2] = test system: homologous passive cutaneous anaphylaxis (PCA) reaction; assay: Effect on homologous passive cutaneous anaphylaxis (PCA) reaction in rats; type: in vivo, rats (male wistar); settings: 50 mg/kg oral, 1 hour before challenge (TABLE 2); for inhibition in vivo at 50 mg/kg: Rattus norvegicus, po, 0.5 h
Procedure: Effect on homologous passive cutaneous anaphylaxis (PCA) reaction in rats.
This experimental animal model is caused by immediate type allergic reaction namely, antigen-antibody reaction. In the following, the method of this pharmacological test will be explained.
Method: Male wistar rats (9 weeks old) were intradermally administered 0.05 ml of anti-serum against dinitrophenylated ascaris (DNP-As) into two sites on the shaved dorsal skin. 48 hours later, 7-glycosyloxybenzopyran derivatives (test compounds) suspended in 0.5% sodium carboxymethylcellulose (CMCNa) were given orally at a dose of 50 mg/kg to the animals. One hour after administration of Test compounds, the animals were induced anaphylaxis by injection of saline (1 ml) dissolving 5 mg of Evans Blue and 1 mg of Trinitrophenylated ascaris (TNP-As) into the tail vein of the animals. 30 minutes after induction of anaphylaxis, animals were anesthetized by ether and killed by bleeding, and were flayed dorsal skin. The determination of extravasated dye was performed according to the method of Katayama et al. (Microbiol. Immunol., Vol.22, P 89-101, 1978). As vehicle control group, only 0.5% CMCNa solution was administered orally, and as positive control group, Tranilast suspended in 0.5% CMCNa was administered orally at a dose of 100 mg/kg to the animals with the same method as the test compounds groups. Each experimental group consisted of 5 rats. [formula]

[3] = test system: contact dermatitis induced by picryl chloride; assay: Effect on contact dermatitis induced by picryl chloride in mice; type: in vivo; settings: 50 mg/kg oral, 1 hour before and 16 hours after challenge, 24 hours after challenge; for inhibition in vivo at 50 mg/kg: Mus musculus, po, 24 h, read-out: Inhibition (%) against the increase of ear thickness
Procedure: Effect on contact dermatitis induced by picryl chloride in mice
The delayed type hypersensitization is inhibited by steroid drugs,but can not be effected by known anti-allergic agents. In the following, the method of the pharmacological test will be explained.
Method: Mice, shaved their abdominal skin on previous day, were immunized by applying 0.1 ml of acetone containing 7 mg of picryl chloride to the skin of the abdomen. 7 days after immunization, the thickness of the ear was measured with a dial thickness gauge, then mice were challenged by painting 5 μl of 1% picryl chloride olive oil solution to each side skin of left ear. 24 hours after challenge, the thickness of the left ear was measured again and the increase (%) of thickness was calculated according to equation 2. The compounds of the present invention (test compounds) suspended in 0.5% CMCNa were forcibly administered orally at a dose of 50 mg/kg at 1 hour before and 16 hours after challenge. As vehicle control group, only 0.5% CMCNa solution were administered orally, and as positive control group, Prednisolone, steroid hormone, and Tranilast were administered orally at the doses of 10 mg/kg and 100 mg/kg, respectively.
Increase (%)=(A-B)/B×100 (Equation 2)
A: thickness of the ear at 24 hours after challenge
B: thickness of the ear before challenge
Inhibition (%)=(C-D)/C×100 (equation 3)
C: The increase (%) in vehicle control group
D: The increase (%) in test compounds group or positive control group

Work on `CC(C)=CCC/C(C)=C/COc1c(O)c2ccc(O[C@@H]3O[C@H](CO)[C@H](O)[C@H](O)[C@H]3O)cc2oc1=O` [compound 95] yielded an inhibition in vivo at 50 mg/kg [1] of 63.2%, an inhibition in vivo at 50 mg/kg [2] of 54.2% and an inhibition in vivo at 50 mg/kg [3] of 55.8%.
With `CCCCCCCCOc1c(OC(C)=O)c(=O)oc2cc(O[C@@H]3O[C@H](COC(C)=O)[C@@H](OC(C)=O)[C@H](OC(C)=O)[C@H]3OC(C)=O)ccc12` [compound 16, 3-acetoxy-4-octyloxy-7-(tetra-O-acetyl-β-D-glucopyranosyloxy)-2H-1-benzopyran-2-one] the inhibition in vivo at 50 mg/kg [1] was 40.2%, the inhibition in vivo at 50 mg/kg [2] was 42.3% and the inhibition in vivo at 50 mg/kg [3] was 43.5%.
`CCCCCCCCCCCCOc1c(O)c(=O)oc2cc(O[C@@H]3O[C@H](CO)[C@@H](O)[C@H](O)[C@H]3O)ccc12` [compound 112] showed an inhibition in vivo at 50 mg/kg [1] of 57.2%, an inhibition in vivo at 50 mg/kg [2] of 44.5% and an inhibition in vivo at 50 mg/kg [3] of 43.3%.
For `CCCCOc1c(O)c2ccc(O[C@H]3O[C@H](CO)[C@@H](O)[C@H](O)[C@@H]3O)cc2oc1=O` [compound 62], the inhibition in vivo at 50 mg/kg [1] was 50.1%, the inhibition in vivo at 50 mg/kg [2] was 53.2% and the inhibition in vivo at 50 mg/kg [3] was 49.3%.
For `CCCCCCOc1c(O)c2ccc(O[C@@H]3O[C@H](CO)[C@@H](O)[C@H](O)[C@H]3O)cc2oc1=O` [compound 38], the inhibition in vivo at 50 mg/kg [1] was 75.5%, the inhibition in vivo at 50 mg/kg [2] was 59.3% and the inhibition in vivo at 50 mg/kg [3] was 63.7%.
`CCCCOc1c(O)c(=O)oc2cc(O[C@@H]3O[C@H](CO)[C@H](O)[C@H](O)[C@H]3O)ccc12` [compound 18, 3-hydroxy-4-butoxy-7-(β-D-galactopyranosyloxy)-2H-1-benzopyran-2-one] was tested, and the inhibition in vivo at 50 mg/kg [1] was 52.3%, the inhibition in vivo at 50 mg/kg [2] was 42.5% and the inhibition in vivo at 50 mg/kg [3] was 40.2%.
With `C=COc1c(O)c(=O)oc2cc(O[C@@H]3O[C@H](CO)[C@@H](O)[C@H](O)[C@H]3O)ccc12` [compound 158] the “Inhibition (%) of the airway resistance” value [1] was 42.3%, the “Inhibition (%) of PCA reaction” value [2] was 44.3% and the “Inhibition (%) against the increase of ear thickness” value (“Inhibition (%) against the increase” for short) [3] was 48.2%.
For `CC(C)Oc1c(O)c(=O)oc2cc(O[C@@H]3O[C@H](CO)[C@@H](O)[C@H](O)[C@H]3O)ccc12` [compound 113], the inhibition in vivo at 50 mg/kg [1] was 56.6%, the inhibition in vivo at 50 mg/kg [2] was 40.3% and the inhibition in vivo at 50 mg/kg [3] was 45.5%.
With `C=COc1c(O)c2ccc(O[C@@H]3O[C@H](CO)[C@@H](O)[C@H](O)[C@H]3O)cc2oc1=O` [compound 44] the inhibition in vivo at 50 mg/kg [1] was 65.1%, the inhibition in vivo at 50 mg/kg [2] was 54.5% and the inhibition in vivo at 50 mg/kg [3] was 56.3%.
For `CCCCCCCCOc1c(O)c(=O)oc2cc(O[C@@H]3O[C@H](CO)[C@H](O)[C@H](O)[C@H]3O)ccc12` [compound 23, 3-hydroxy-4-octyloxy-7-(β-D-galactopyranosyloxy)-2H-1-benzopyran-2-one], the inhibition in vivo at 50 mg/kg [1] was 61.5%, the inhibition in vivo at 50 mg/kg [2] was 44.7% and the inhibition in vivo at 50 mg/kg [3] was 49.3%.
`CCCCCCCCOc1c(O)c(=O)oc2cc(O[C@@H]3O[C@H](CO)[C@@H](O)[C@H](O)[C@H]3O)ccc12` [compound 22, 3-hydroxy-4-octyloxy-7-(β-D-glucopyranosyloxy)-2H-1-benzopyran-2-one] gave an inhibition in vivo at 50 mg/kg [1] of 60.6%, an inhibition in vivo at 50 mg/kg [2] of 43.6% and an inhibition in vivo at 50 mg/kg [3] of 47.3%.
In the case of `CCCCCCCCOc1c(O)c2ccc(O[C@H]3O[C@H](CO)[C@@H](O)[C@H](O)[C@@H]3O)cc2oc1=O` [compound 64], the inhibition in vivo at 50 mg/kg [1] is reported as 57.2%, the inhibition in vivo at 50 mg/kg [2] is reported as 54.9% and the inhibition in vivo at 50 mg/kg [3] is reported as 52.6%.
`CC(C)Oc1c(O)c2ccc(O[C@H]3O[C@H](CO)[C@@H](O)[C@H](O)[C@@H]3O)cc2oc1=O` [compound 67] showed an inhibition in vivo at 50 mg/kg [1] of 60.2%, an inhibition in vivo at 50 mg/kg [2] of 50.4% and an inhibition in vivo at 50 mg/kg [3] of 53.2%.
Work on `CCCCCCOc1c(O)c2ccc(O[C@H]3O[C@H](CO)[C@@H](O)[C@H](O)[C@@H]3O)cc2oc1=O` [compound 63] yielded an inhibition in vivo at 50 mg/kg [1] of 53.2%, an inhibition in vivo at 50 mg/kg [2] of 55.7% and an inhibition in vivo at 50 mg/kg [3] of 53.1%.
`O=c1oc2cc(O[C@@H]3O[C@H](CO)[C@@H](O)[C@H](O)[C@H]3O)ccc2c(O)c1O` [compound 151] was tested, and the “Inhibition (%) of the airway resistance” value [1] was 49.7%, the “Inhibition (%) of PCA reaction” value [2] was 45.4% and the “Inhibition (%) against the increase” value [3] was 46.5%.
With `CC(=O)Oc1c(O)c2ccc(O[C@@H]3O[C@H](CO)[C@@H](O)[C@H](O)[C@H]3O)cc2oc1=O` [compound 11, 3-acetoxy-4-hydroxy-7-(β-D-glucopyranosyloxy)-2H-1-benzopyran-2-one] the inhibition in vivo at 50 mg/kg [1] was 45.7%, the inhibition in vivo at 50 mg/kg [2] was 43.2% and the inhibition in vivo at 50 mg/kg [3] was 44.3%.
In the case of `CCCCCCCCCCOc1c(O)c(=O)oc2cc(O[C@@H]3O[C@H](CO)[C@@H](O)[C@H](O)[C@H]3O)ccc12` [compound 111], the inhibition in vivo at 50 mg/kg [1] is reported as 61.3%, the inhibition in vivo at 50 mg/kg [2] is reported as 43.1% and the inhibition in vivo at 50 mg/kg [3] is reported as 41.2%.
`O=c1oc2cc(O[C@@H]3O[C@H](CO)[C@@H](O)[C@H](O)[C@H]3O)ccc2c(OCc2ccccc2)c1O` [compound 118] was tested, and the “Inhibition (%) of the airway resistance” value [1] was 45.3%, the “Inhibition (%) of PCA reaction” value [2] was 41.2% and the “Inhibition (%) against the increase” value [3] was 43.5%.
For `O=c1oc2cc(O[C@H]3O[C@H](CO)[C@@H](O)[C@H](O)[C@@H]3O)ccc2c(O)c1O` [compound 130], the “Inhibition (%) of the airway resistance” value [1] was 40.2%, the “Inhibition (%) of PCA reaction” value [2] was 40.1% and the “Inhibition (%) against the increase” value [3] was 41.2%.
With `COc1c(O)c2ccc(O[C@H]3O[C@H](CO)[C@@H](O)[C@H](O)[C@@H]3O)cc2oc1=O` [compound 8, 3-methoxy-4-hydroxy-7-(α-D-mannopyranosyloxy)-2H-1-benzopyran-2-one] the inhibition in vivo at 50 mg/kg [1] was 59.2%, the inhibition in vivo at 50 mg/kg [2] was 49.2% and the inhibition in vivo at 50 mg/kg [3] was 50.3%.
For `CC(=O)Oc1c(OC(C)C)c2ccc(O[C@@H]3O[C@H](COCc4ccccc4)[C@@H](OCc4ccccc4)[C@H](OCc4ccccc4)[C@H]3OCc3ccccc3)cc2oc1=O` [compound 145], the inhibition in vivo at 50 mg/kg [1] was 41.9%, the inhibition in vivo at 50 mg/kg [2] was 40.2% and the inhibition in vivo at 50 mg/kg [3] was 42.1%.
Work on `CCCCCCOc1c(O)c2ccc(O[C@@H]3O[C@H](CO)[C@H](O)[C@H](O)[C@H]3O)cc2oc1=O` [compound 87] yielded an inhibition in vivo at 50 mg/kg [1] of 79.5%, an inhibition in vivo at 50 mg/kg [2] of 60.3% and an inhibition in vivo at 50 mg/kg [3] of 64.9%.
`CCCCOc1c(O)c2ccc(O[C@@H]3O[C@H](CO)[C@@H](O)[C@H](O)[C@H]3O)cc2oc1=O` [compound 37] showed an inhibition in vivo at 50 mg/kg [1] of 68.2%, an inhibition in vivo at 50 mg/kg [2] of 55.1% and an inhibition in vivo at 50 mg/kg [3] of 53.9%.
`CCCCCCCCOc1c(OCc2ccccc2)c2ccc(O[C@@H]3O[C@H](COCc4ccccc4)[C@@H](OCc4ccccc4)[C@H](OCc4ccccc4)[C@H]3OCc3ccccc3)cc2oc1=O` [compound 35] gave an inhibition in vivo at 50 mg/kg [1] of 38.2%, an inhibition in vivo at 50 mg/kg [2] of 42.2% and an inhibition in vivo at 50 mg/kg [3] of 40.5%.
With `CC(C)=CCC/C(C)=C/COc1c(O)c(=O)oc2cc(O[C@@H]3O[C@H](CO)[C@@H](O)[C@H](O)[C@H]3O)ccc12` [compound 160] the “Inhibition (%) of the airway resistance” value [1] was 58.9%, the “Inhibition (%) of PCA reaction” value [2] was 43.9% and the “Inhibition (%) against the increase” value [3] was 46.7%.
`C=COc1c(O)c2ccc(O[C@@H]3O[C@H](CO)[C@H](O)[C@H](O)[C@H]3O)cc2oc1=O` [compound 93] was tested, and the inhibition in vivo at 50 mg/kg [1] was 69.7%, the inhibition in vivo at 50 mg/kg [2] was 55.2% and the inhibition in vivo at 50 mg/kg [3] was 56.4%.
